Test results taken from publication PMC6478789, “A chemical toolbox for the study of bromodomains and epigenetic signaling” (Nature Communications, 2019).

Assays:
[1] = biological target: T1, ATAD2B (Homo sapiens, UniProt Q9ULI0); test: BROMOscan ligand-binding assay; conditions: KD, BROMOscan Gene Symbol ATAD2B
T1 sequence (Q9ULI0 951-1066 limits assumed): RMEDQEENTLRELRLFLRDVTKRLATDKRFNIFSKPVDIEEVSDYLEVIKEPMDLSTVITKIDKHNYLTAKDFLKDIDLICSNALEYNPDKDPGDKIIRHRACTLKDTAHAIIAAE
Excerpt: (§2) BROMOscan is a binding assay based on the well-known KINOMEscan technology. This assay measures the binding of a DNA-tagged bromodomain to an immobilized BRD ligand. If an inhibitor is present, it will compete with the bromodomain binding to the immobilized ligand, resulting in reduction of a quantitative PCR (qPCR) signal in a dose-dependent manner.

[2] = biological target: T2, BAZ1B (Homo sapiens, UniProt Q9UIG0); test: BROMOscan ligand-binding assay; conditions: KD, BROMOscan Gene Symbol BAZ1B
T2 sequence (Q9UIG0 1339-1443 limits assumed): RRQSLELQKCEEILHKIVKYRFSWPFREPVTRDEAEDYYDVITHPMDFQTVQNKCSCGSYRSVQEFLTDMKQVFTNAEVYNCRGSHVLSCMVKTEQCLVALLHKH
Excerpt: as §2

[3] = biological target: T3, EP300 (Homo sapiens, UniProt Q09472); test: BROMOscan ligand-binding assay; conditions: KD, BROMOscan Gene Symbol EP300
T3 sequence (Q09472 1049-1156 limits assumed): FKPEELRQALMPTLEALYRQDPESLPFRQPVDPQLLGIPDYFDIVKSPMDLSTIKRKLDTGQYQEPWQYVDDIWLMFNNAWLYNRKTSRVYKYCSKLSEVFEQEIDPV
Excerpt: as §2

[4] = biological target: T4, BAZ2B (Homo sapiens, UniProt Q9UIF8); test: BROMOscan ligand-binding assay; conditions: KD, BROMOscan Gene Symbol BAZ2B
T4 sequence (Q9UIF8 2060-2164 limits assumed): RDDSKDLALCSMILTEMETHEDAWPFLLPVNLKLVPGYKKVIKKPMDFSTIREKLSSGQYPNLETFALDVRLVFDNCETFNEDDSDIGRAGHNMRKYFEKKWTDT
Excerpt: as §2

[5] = biological target: T5, ATAD2A (Homo sapiens, UniProt Q6PL18); test: BROMOscan ligand-binding assay; conditions: KD, BROMOscan Gene Symbol ATAD2A
T5 sequence (Q6PL18 980-1092 limits assumed): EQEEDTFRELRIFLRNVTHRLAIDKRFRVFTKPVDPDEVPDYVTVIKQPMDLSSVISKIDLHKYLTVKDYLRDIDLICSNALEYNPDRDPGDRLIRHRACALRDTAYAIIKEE
Excerpt: as §2

[6] = biological target: WDR9(2) (Homo sapiens, UniProt Q9NSI6); test: BROMOscan ligand-binding assay
WDR9(2), sequence (Q9NSI6 1313-1418 limits assumed): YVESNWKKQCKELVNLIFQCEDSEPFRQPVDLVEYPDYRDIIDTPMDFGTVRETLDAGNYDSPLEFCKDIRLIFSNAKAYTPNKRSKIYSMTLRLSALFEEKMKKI
Excerpt: as §2

[7] = biological target: BRD8(2) (Homo sapiens, UniProt Q9H0E9); test: BROMOscan ligand-binding assay; conditions: KD, BROMOscan Gene Symbol BRD8(2)
BRD8(2), sequence (Q9H0E9 1099-1207 limits assumed): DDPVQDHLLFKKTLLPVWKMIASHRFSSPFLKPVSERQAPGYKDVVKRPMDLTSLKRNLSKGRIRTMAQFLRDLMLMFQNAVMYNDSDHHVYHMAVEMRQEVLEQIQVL
Excerpt: as §2

[8] = biological target: T6, TRIM33(PHD,BRD) (Homo sapiens, UniProt Q9UPN9); test: BROMOscan ligand-binding assay
T6 sequence (Q9UPN9 882-1087 limits assumed): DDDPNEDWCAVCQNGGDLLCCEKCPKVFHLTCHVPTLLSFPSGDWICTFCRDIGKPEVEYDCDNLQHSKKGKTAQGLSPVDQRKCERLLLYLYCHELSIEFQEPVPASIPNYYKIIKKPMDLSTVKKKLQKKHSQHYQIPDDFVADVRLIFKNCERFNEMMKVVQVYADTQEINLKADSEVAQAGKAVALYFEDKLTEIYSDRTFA
Excerpt: as §2

[9] = biological target: SMARCA2 (Homo sapiens, UniProt P51531); test: BROMOscan ligand-binding assay; conditions: KD, BROMOscan Gene Symbol SMARCA2
SMARCA2, sequence (P51531 1-1572 isoform P51531-2): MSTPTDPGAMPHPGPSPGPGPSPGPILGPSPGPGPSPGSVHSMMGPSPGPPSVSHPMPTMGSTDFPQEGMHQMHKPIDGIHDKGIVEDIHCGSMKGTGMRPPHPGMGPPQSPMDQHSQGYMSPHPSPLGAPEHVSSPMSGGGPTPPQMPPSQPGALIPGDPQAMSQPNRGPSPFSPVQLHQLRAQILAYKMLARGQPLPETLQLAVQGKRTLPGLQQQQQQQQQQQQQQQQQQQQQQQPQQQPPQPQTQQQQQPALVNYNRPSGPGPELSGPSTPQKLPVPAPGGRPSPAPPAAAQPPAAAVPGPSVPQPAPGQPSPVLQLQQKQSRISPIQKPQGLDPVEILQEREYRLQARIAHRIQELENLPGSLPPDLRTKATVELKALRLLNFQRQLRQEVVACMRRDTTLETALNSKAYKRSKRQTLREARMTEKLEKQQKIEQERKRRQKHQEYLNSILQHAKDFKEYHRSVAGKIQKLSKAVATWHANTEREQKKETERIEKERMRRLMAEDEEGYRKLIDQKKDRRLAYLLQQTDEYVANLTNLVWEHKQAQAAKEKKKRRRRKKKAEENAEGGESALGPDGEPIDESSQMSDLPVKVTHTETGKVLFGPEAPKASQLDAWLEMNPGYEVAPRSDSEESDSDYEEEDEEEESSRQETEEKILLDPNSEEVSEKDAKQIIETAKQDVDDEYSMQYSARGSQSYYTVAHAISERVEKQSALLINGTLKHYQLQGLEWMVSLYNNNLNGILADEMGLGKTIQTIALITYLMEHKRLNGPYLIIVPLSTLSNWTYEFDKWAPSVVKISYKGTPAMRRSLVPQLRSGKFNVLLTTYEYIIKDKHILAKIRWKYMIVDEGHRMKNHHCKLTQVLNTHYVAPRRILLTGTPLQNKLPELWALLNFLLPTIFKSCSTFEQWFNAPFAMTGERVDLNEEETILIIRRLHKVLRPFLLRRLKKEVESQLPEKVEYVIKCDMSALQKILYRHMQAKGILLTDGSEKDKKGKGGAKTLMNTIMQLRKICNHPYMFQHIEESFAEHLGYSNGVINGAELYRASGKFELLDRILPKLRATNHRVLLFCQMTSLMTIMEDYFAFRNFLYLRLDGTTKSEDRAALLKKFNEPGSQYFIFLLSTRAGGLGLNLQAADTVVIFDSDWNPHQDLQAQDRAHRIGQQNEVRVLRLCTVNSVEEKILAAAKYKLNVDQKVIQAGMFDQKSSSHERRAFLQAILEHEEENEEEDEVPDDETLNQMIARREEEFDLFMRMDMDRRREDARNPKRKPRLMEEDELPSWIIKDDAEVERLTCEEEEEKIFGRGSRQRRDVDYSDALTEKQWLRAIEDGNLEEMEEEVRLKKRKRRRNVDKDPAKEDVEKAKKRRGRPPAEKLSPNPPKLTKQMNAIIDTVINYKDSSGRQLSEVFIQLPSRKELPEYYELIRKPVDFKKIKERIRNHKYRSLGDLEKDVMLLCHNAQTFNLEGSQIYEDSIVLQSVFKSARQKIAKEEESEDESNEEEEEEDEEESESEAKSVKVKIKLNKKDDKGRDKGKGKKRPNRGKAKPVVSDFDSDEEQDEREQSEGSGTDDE
Excerpt: as §2

[10] = biological target: T7, CBP (Homo sapiens, UniProt Q92793); test: Temperature shift assay (bromodomains); assay type: binding; conditions: compared to ITC KD
T7 construct: Recombinant protein domains (bromodomain or kinases) at a concentration of 2 μM
T7 sequence (Q92793 1085-1192 limits assumed): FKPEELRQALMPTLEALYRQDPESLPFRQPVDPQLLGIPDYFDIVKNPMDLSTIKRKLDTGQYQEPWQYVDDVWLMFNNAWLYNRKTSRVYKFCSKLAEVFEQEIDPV
Procedure: (§1) Temperature shift assays have been described by Fedorov et al.[46]. Recombinant protein domains (bromodomain or kinases) at a concentration of 2 μM in 10 mM HEPES, pH 7.5, and 500 mM NaCl were mixed with 10 μM of chemical probes. Temperature-dependent protein unfolding profiles were measured using a Real-Time PCR Mx3005p machine (Stratagene).

[11] = biological target: T8, BRD9 (Homo sapiens, UniProt Q9H8M2); test: Temperature shift assay (bromodomains); assay type: binding; conditions: compared to ITC KD
T8 construct: purchased DiscoverX BROMOscan (bromodomains); SGC in-house methyltransferase panel
T8 sequence (Q9H8M2 134-239): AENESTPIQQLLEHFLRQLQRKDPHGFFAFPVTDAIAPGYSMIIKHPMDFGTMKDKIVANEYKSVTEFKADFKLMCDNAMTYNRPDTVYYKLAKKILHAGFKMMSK
Procedure: as §1

[12] = biological target: T9, TAF1L(2) (Homo sapiens, UniProt Q8IZX4); test: Temperature shift assay (bromodomains); assay type: binding; conditions: compared to ITC KD
T9 construct: purchased DiscoverX BROMOscan (bromodomains); SGC in-house methyltransferase panel
T9 sequence (Q8IZX4 1523-1654 limits assumed): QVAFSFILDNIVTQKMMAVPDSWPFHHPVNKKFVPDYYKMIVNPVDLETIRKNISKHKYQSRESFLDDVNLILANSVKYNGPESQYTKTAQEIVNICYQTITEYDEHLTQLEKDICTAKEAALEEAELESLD
Procedure: as §1

[13] = biological target: BRD8(1) (Homo sapiens, UniProt Q9H0E9); test: BROMOscan ligand-binding assay; conditions: KD, BROMOscan Gene Symbol BRD8(1)
BRD8(1), sequence (Q9H0E9 706-811 limits assumed): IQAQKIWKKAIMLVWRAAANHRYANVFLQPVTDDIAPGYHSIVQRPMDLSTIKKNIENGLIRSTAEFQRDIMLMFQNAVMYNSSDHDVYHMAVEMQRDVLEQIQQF
Excerpt: as §2

[14] = biological target: SMARCA2(iso.A) (Homo sapiens, UniProt P51531); test: BROMOscan ligand-binding assay; conditions: KD, BROMOscan Gene Symbol SMARCA2(iso.A)
SMARCA2(iso.A), sequence (P51531 1378-1506 limits assumed): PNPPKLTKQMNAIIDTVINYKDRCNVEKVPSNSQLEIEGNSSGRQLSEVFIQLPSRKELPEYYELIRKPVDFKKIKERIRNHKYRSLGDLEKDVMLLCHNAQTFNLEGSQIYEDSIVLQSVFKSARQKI
Excerpt: as §2

[15] = test system: C2C12 myoblast cells; test: Gene-expression analysis (microarray); assay type: cell-based, mouse; conditions: 12 h; 500 nM (JQ1, LP-99), 2 μM (GSK2801, BAZ2-ICR, BSP)
Procedure: Total RNA was extracted using the PureLink^TM RNA mini kit (Thermo Fisher Scientific, 12183018A) as per the manufacturer’s protocol.
RNA samples were processed for oligonucleotide microarray profiling utilizing the Affymetrix Clariom^TM S Assay HT mouse. Quality controls were carried out in R (v.3.5.1) and Bioconductor[71] (v.3.7) using the arrayQualityMetrics package (v.3.36.0) taking into account array intensity distributions, distance between arrays, and variance mean dependence. Principal component analysis was used to decide which arrays to process together. After quality control, arrays were corrected for background, normalized, and log2-transformed together using the rma function of the oligo package (v.1.44)[73] in R/Bioconductor. Probes with small variance across samples were filtered out using the genefilter (v.1.62) package, employing the nsFilter function and an interquartile range cut-off of 0.28 (or >log(1.2), determined by the midpoint of the shortest interval containing half of the data). This reduced the number of probes of the Clariom^TM S array from 29,129 to 14,538.
Differential expression analysis was conducted using the limma package (v.3.36.2)[74], employing a linear model followed by empirical Bayesian analysis to determine differential expression between not-treated and treated samples.

[16] = biological target: T10, GCN5L2 (Homo sapiens, UniProt Q92830); test: BROMOscan ligand-binding assay; conditions: KD, BROMOscan Gene Symbol GCN5L2
T10 sequence (Q92830 728-832 limits assumed): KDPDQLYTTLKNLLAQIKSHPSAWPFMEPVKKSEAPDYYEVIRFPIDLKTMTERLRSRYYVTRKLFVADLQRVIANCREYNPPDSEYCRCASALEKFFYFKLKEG
Excerpt: as §2

[17] = biological target: T11, BRPF1 (Homo sapiens, UniProt P55201); test: BROMOscan ligand-binding assay; conditions: KD, BROMOscan Gene Symbol BRPF1
T11 sequence (P55201 628-732 limits assumed): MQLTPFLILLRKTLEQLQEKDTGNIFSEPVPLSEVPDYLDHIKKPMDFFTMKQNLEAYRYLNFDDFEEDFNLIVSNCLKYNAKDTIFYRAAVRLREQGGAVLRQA
Excerpt: as §2

[18] = KD (BROMOscan), sheet prints no unit (nM)

CCOC(=O)Nc1cc(-c2ccc(C)c(NS(C)(=O)=O)c2)nn2c(C)nnc12 [Bromosporine]
Kd [1]: 30 µM
Kd [2]: 38 µM
Kd [3]: 1600 nM
Kd [4]: 9.1 µM
Kd [5]: 62 µM
Kd [6, 18]: > 30000 nM
Kd ([6]; KD, BROMOscan Gene Symbol WDR9(2)): > 50000 nM
Kd [7]: 40 µM
Kd [8, 18]: > 30000 nM
Kd ([8]; KD, BROMOscan Gene Symbol TRIM33(PHD,Bromo.)): > 50000 nM
Kd [9]: 4.6 µM
ΔTm [10]: relatively large ΔTm
ΔTm [11]: only modest ΔTm
ΔTm [12]: only modest ΔTm
Kd [13]: 28 µM
Kd [14]: 6.2 µM
changes in gene-expression levels [15]: significant changes in gene-expression levels
Kd [16]: 12 µM
Kd [17]: 600 nM
